Tests used:
[1] = tested on: MB231 xenograft tumors; test: qRT-PCR and Western blot of xenograft tumor tissue; type: in vivo, mouse; conditions: niclosamide 4 mg/kg daily i.p.
Protocol: Total RNA was extracted from cells using TRIzol Reagent (ThermoFisher Scientific, Waltham, MA, USA) and the RNA was reverse-transcribed using a high-capacity cDNA reverse transcription kit (ThermoFisher Scientific, Waltham, MA, USA) according to the manufacturer’s protocol. Quantitative RT-PCR was performed with Takara Taq Hot Start Version (TaKaRa Biotechnology, Shiga, Japan) or Power SYBR Green PCR master mix (Bio-Rad, Hercules, CA, USA). Primer sequences are shown in Supplemental Table S1. The relative mRNA expression was determined by the 2^−∆∆Ct method. Additionally, 18S was used as a housekeeping gene for normalization.
Cells and tumor tissues were lysed in Pierce™ RIPA buffer (ThermoFisher Scientific, Waltham, MA, USA) supplemented with Halt™ Protease and Phosphatase Inhibitor Cocktail (ThermoFisher Scientific, Waltham, MA, USA). Homogenates were centrifuged, and supernatants were used for protein measurement via Pierce™ BCA Protein Assay Kit (ThermoFisher Scientific, Waltham, MA, USA). […] Western blot samples were prepared in Laemmli sample buffer (Bio-Rad Laboratories, Hercules, CA, USA). They were loaded onto a SDS–PAGE gel and transferred onto a PVDF membrane (Bio-Rad Laboratories, Hercules, CA, USA). The membrane was blocked and antibodies diluted in 5% nonfat dry milk (Bio-Rad Laboratories, Hercules, CA, USA) or in 5% bovine serum albumin (Irvine Scientific, Santa Ana, CA, USA) were used. Protein bands were visualized using Pierce™ ECL Western Blotting Substrate (ThermoFisher Scientific, Waltham, MA, USA) and developed on the autoradiography film (Santa Cruz, Dallas, TX, USA). Primary antibodies were purchased either from Cell Signaling (Danvers, MA, USA) [anti-GPX4 (#52455), anti-FTH (#4393), anti-HSP60 (#12165), anti-phospho-p70S6K (#9205), anti-p70S6K (#2708)] or from Abcam (Waltham, MA, USA) [Nrf2 (#ab62352)]. Secondary antibody Horseradish peroxidase-conjugated goat anti-rabbit IgG (#1706515) was purchased from Bio-Rad Laboratories (Hercules, CA, USA). For quantification of protein levels by the densitometric analysis, the experiment was carried out in triplicate and the data were collected from the resultant three Western blots.
Female athymic nude mice (4-week-old) were purchased from Jackson Laboratories and housed under standard conditions. MDA-MB231 cells were injected into lower mammary fat pad (5 × 10^6 cells). All cells were suspended in serum-free media and Matrigel (1:1 ratio), with 100 µL of suspension being injected into each mouse. Mice were treated by daily intraperitoneal injection of niclosamide (4 mg/kg/day) and vehicle (dimethylsulfoxide) control. The treatment began when the tumor size was 100–150 mm^3. Tumor size was measured biweekly with a caliper, with tumor volume calculated using the formula (width^2 × length)/2. Tumors were allowed to grow for 7 weeks; mice were then euthanized via isoflurane […] and tumors harvested. The animal study protocol was approved by the Texas Tech University Health Sciences Center Institutional Animal Care and Use Committee (IACUC protocol number 18005) and the experiments were conducted in the same institution. RNA and protein were prepared from the tumor tissue for qRT-PCR and Western blotting.

[2] = target: T1, SLC7A11 (Homo sapiens, UniProt Q9UPY5); test: Direct inhibition of SLC7A11 transport activity ([3H]-glutamate uptake) in TNBC cells; type: cell-based
T1 construct: endogenous in cells; host or cells: TNBC cell lines MB231, TXBR100 and MB453
T1 sequence (Q9UPY5 1-501): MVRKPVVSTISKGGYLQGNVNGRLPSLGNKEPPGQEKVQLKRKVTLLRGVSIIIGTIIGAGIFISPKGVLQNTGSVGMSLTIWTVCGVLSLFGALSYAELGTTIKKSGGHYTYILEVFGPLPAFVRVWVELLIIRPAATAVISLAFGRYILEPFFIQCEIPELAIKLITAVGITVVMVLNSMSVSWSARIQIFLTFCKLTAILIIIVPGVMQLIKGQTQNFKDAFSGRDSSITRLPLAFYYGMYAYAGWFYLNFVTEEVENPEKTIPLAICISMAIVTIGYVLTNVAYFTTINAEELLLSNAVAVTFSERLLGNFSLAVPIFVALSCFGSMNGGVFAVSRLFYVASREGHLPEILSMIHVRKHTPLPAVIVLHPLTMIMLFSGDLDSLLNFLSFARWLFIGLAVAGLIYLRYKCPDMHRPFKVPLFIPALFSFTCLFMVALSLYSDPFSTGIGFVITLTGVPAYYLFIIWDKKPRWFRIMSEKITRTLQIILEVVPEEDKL
T1 sequence (P08195 1-529 partner): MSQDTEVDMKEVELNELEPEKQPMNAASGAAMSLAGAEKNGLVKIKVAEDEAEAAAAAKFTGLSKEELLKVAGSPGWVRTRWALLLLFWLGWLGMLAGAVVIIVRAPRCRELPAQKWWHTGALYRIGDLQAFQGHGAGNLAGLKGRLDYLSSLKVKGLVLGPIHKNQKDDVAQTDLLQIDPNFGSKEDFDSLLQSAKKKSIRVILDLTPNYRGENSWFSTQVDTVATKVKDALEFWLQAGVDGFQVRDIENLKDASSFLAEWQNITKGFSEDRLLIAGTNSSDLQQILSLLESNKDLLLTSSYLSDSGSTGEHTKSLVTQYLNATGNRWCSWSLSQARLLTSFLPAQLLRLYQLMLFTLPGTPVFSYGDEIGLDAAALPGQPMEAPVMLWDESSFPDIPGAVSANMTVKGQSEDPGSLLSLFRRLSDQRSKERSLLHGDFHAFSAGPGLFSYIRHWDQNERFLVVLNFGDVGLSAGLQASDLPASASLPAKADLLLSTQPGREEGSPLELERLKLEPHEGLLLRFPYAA
Protocol: However, we routinely measure the activity of this transporter by cellular uptake of [^3H]-glutamate under Na^+-free conditions. Under these conditions, SLC7A11 mediates the cellular entry of [^3H]-glutamate in exchange for intracellular unlabeled glutamate. […] Non-carrier-mediated uptake (i.e, diffusional component) was determined by measuring the uptake of [^3H]-glutamate in the presence of excess unlabeled glutamate (5 mM). The transport activity of SLC7A11 was calculated by subtracting the diffusional component from total uptake.
Confluent cultures were used for uptake measurements.

[3] = tested on: MB231 and TXBR100 cells; test: Matrigel cell invasion assay; type: cell-based; conditions: Homo sapiens, niclosamide 2.5 μM, 24 h, read-out: inhibition of cell invasion and migration
Protocol: The effect of niclosamide on cell invasion was monitored using Corning® BioCoat™ Matrigel® Invasion assay kit according to the manufacturer’s instructions. Briefly, cells were serum-starved and their invasion to the other side of the membrane was analyzed in the presence or absence of niclosamide for 24 h. At the end of this treatment, non-invaded cells on the top side of the membrane were removed by scrubbing. Cells which invaded the other side of the membrane were fixed with 100% methanol, stained with crystal violet and counted under an inverted microscope; images were also captured.

O=C(Nc1ccc([N+](=O)[O-])cc1Cl)c1cc(Cl)ccc1O [niclosamide]
Nrf2 protein levels in tumors ([1]; Western blot): markedly decreased
ferritin heavy chain protein levels in tumors ([1]; Western blot): decreased
Nrf2 mRNA level in tumors ([1]; qRT-PCR): markedly decreased
SLC7A11 mRNA level in tumors ([1]; qRT-PCR): markedly decreased
SLC38A5 mRNA level in tumors ([1]; qRT-PCR): markedly decreased
affinity for SLC7A11 relative to experimental value known for erastin ([2]; niclosamide IC50 vs erastin literature value): at least three-to-four times greater
IC50 ([2]; three TNBC cell lines (MB231, TXBR100, MB453), niclosamide present only during uptake, Na+-free buffer pH 7.5): ~300 nM
inhibition at […] [3]: > 75%

From publication PMC10967572, “Induction of Oxidative Stress and Ferroptosis in Triple-Negative Breast Cancer Cells by Niclosamide via Blockade of the Function and Expression of SLC38A5 and SLC7A11” (Antioxidants, 2024)
